ChEMBL document CHEMBL1201862, “PubChem BioAssay data set” (2004)
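Five compound concentrations were applied to cells in 96-well plates for 48 hours; endpoints were derived by simple linear interpolation of the resulting dose-response curve. Here, GI50 denotes the concentration required for 50% inhibition of growth.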 Calls of active or inactive are those of the source. Cut-off read from the data, not from the text of the source: active = GI50 up to about 1.1 µM and inactive = higher.

Legend:
Experiment in all cases: NCI anticancer screen, dose series, 48 h
[1] = system: NCI-H23
[2] = system: SK-MEL-2
[3] = system: MDA-MB-231
[4] = system: T47D
[5] = system: OVCAR-3
[6] = system: 786-0
[7] = system: LOX IMVI
[8] = system: TK-10
[9] = system: BT-549
[10] = system: EKVX
[11] = system: NCI/ADR-RES
[12] = system: DU-145
[13] = system: A549
[14] = system: Malme-3M
[15] = system: UACC-62
[16] = system: CAKI-1
[17] = system: KM12
[18] = system: SF-268
[19] = system: MDA-N
[20] = system: SN12C
[21] = system: K562
[22] = system: SK-OV-3
[23] = system: COLO 205
[24] = system: RPMI-8226
[25] = system: MDA-MB-435
[26] = system: HOP-62
[27] = system: OVCAR-8
[28] = system: NCI-H226
[29] = system: SF-295
[30] = system: SK-MEL-5
[31] = system: HCC 2998
[32] = system: SNB-75
[33] = system: MOLT-4
[34] = system: U-251
[35] = system: UO-31
[36] = system: OVCAR-4
[37] = system: HL-60
[38] = system: HT-29
[39] = system: ACHN
[40] = system: NCI-H522
[41] = system: SR
[42] = system: A498
[43] = system: HCT-116
[44] = system: SF-539
[45] = system: SW-620
[46] = system: PC-3
[47] = system: HCT-15
[48] = system: UACC-257
[49] = system: IGROV-1
[50] = system: M14
[51] = system: OVCAR-5

Q: `COc1ccc2c(c1)OCC1=C2Oc2ccccc2C1` was tested. Which GI50 [1] did it give?
A: Its GI50 is 53.2 µM (inactive).

Q: And the GI50 [2]?
A: Its GI50 is 26.5 µM (inactive).

Q: What about the GI50 [3] of the same molecule?
A: The GI50 was 23.5 µM (inactive).

Q: And the GI50 [4]?
A: The GI50 was 36.1 µM (inactive).

Q: What about the GI50 [5] of the same molecule?
A: The GI50 was 33.6 µM (inactive).

Q: And the GI50 [6]?
A: The GI50 was 38 µM (inactive).

Q: And the GI50 [7]?
A: Its GI50 is 21.4 µM (inactive).

Q: What about the GI50 [8] of the same molecule?
A: The GI50 was 40.2 µM (inactive).

Q: And the GI50 [9]?
A: The GI50 was 28 µM (inactive).

Q: And the GI50 [10]?
A: Its GI50 is 30.3 µM (inactive).

Q: And the GI50 [11]?
A: Its GI50 is 44.4 µM (inactive).

Q: And the GI50 [12]?
A: Its GI50 is 83.9 µM (inactive).

Q: And the GI50 [13]?
A: Its GI50 is 48.5 µM (inactive).

Q: What about the GI50 [14] of the same molecule?
A: Its GI50 is > 100 µM (inactive).

Q: What about the GI50 [15] of the same molecule?
A: Its GI50 is 69 µM (inactive).

Q: What about the GI50 [16] of the same molecule?
A: Its GI50 is 49.7 µM (inactive).

Q: What about the GI50 [17] of the same molecule?
A: The GI50 was 55.8 µM (inactive).

Q: And the GI50 [18]?
A: Its GI50 is 81.3 µM (inactive).

Q: And the GI50 [19]?
A: The GI50 was 25 µM (inactive).

Q: What about the GI50 [20] of the same molecule?
A: Its GI50 is 39.3 µM (inactive).

Q: And the GI50 [21]?
A: Its GI50 is 22.1 µM (inactive).

Q: And the GI50 [22]?
A: The GI50 was 85.3 µM (inactive).

Q: What about the GI50 [23] of the same molecule?
A: Its GI50 is 22.5 µM (inactive).

Q: What about the GI50 [24] of the same molecule?
A: Its GI50 is 23.1 µM (inactive).

Q: And the GI50 [25]?
A: Its GI50 is 26.5 µM (inactive).

Q: And the GI50 [26]?
A: Its GI50 is 55.3 µM (inactive).

Q: And the GI50 [27]?
A: The GI50 was 55.6 µM (inactive).

Q: What about the GI50 [28] of the same molecule?
A: The GI50 was 27 µM (inactive).

Q: And the GI50 [29]?
A: The GI50 was 41.5 µM (inactive).

Q: And the GI50 [30]?
A: Its GI50 is 13.9 µM (inactive).

Q: And the GI50 [31]?
A: The GI50 was 24 µM (inactive).

Q: And the GI50 [32]?
A: The GI50 was 3.12 µM (inactive).

Q: And the GI50 [33]?
A: Its GI50 is 20.3 µM (inactive).

Q: What about the GI50 [34] of the same molecule?
A: The GI50 was 33.5 µM (inactive).

Q: What about the GI50 [35] of the same molecule?
A: Its GI50 is 50.4 µM (inactive).

Q: And the GI50 [36]?
A: Its GI50 is 31.6 µM (inactive).

Q: And the GI50 [37]?
A: The GI50 was 14.8 µM (inactive).

Q: What about the GI50 [38] of the same molecule?
A: Its GI50 is 26.7 µM (inactive).

Q: And the GI50 [39]?
A: Its GI50 is 37.4 µM (inactive).

Q: What about the GI50 [40] of the same molecule?
A: The GI50 was 22 µM (inactive).

Q: And the GI50 [41]?
A: Its GI50 is 26.9 µM (inactive).

Q: And the GI50 [42]?
A: Its GI50 is > 100 µM (inactive).

Q: What about the GI50 [43] of the same molecule?
A: The GI50 was 36.6 µM (inactive).

Q: And the GI50 [44]?
A: Its GI50 is 27.5 µM (inactive).

Q: What about the GI50 [45] of the same molecule?
A: The GI50 was 30.2 µM (inactive).

Q: And the GI50 [46]?
A: Its GI50 is 34.8 µM (inactive).

Q: And the GI50 [47]?
A: The GI50 was 31 µM.

Q: What about the GI50 [48] of the same molecule?
A: Its GI50 is 31.2 µM (inactive).

Q: And the GI50 [49]?
A: Its GI50 is 7.19 µM (inactive).

Q: And the GI50 [50]?
A: The GI50 was 38 µM (inactive).

Q: And the GI50 [51]?
A: Its GI50 is 30.1 µM (inactive).
